Assays:
C450-8 cells = assay: cells; details: Rattus norvegicus, read-out: CPA concentration reducing the number of cells by 50%
Description: Cyclophosphamide Dose-Response Assay: For dose-response curves, cells were plated at a density of 2×10^5 cells/100 mm dish (Corning) in quintuplicate. Two days later CPA was added to final concentrations of 0-100 μM. Five days after plating, the monolayers were rinsed twice with Hank's buffered saline (GIBCO) to remove dead cells. Monolayers were dispersed using trypsin-EDTA (GIBCO), and cell numbers were determined using a Coulter counter (Coulter Electronics Inc.).

C450-8 tumors = assay: Cyclophosphamide sensitivity of subcutaneous tumors; type: in vivo, nude mice; details: day 17
Description: (§1) Animal Studies: For animal injections, cultured cells in the proliferative stage were replated 24 hours before harvesting, then trypsinized, centrifuged at low speed, washed once by resuspension in Hank's buffered saline, centrifuged, and then resuspended in DMEM without serum at a density of 5×10^6 cells/mL. For subcutaneous injections, 10^6 C450-8 or C6 cells in 200 μl were injected into the flanks of athymic mice (NCY/Sed, nu/nu; MGH breeding colony; five animals per group). After 3 days, when tumors had reached a volume of about 0.01 cm^3 (as measured by external calipers) (Lee et al., Neurosurgery 26:598-605 (1990) and again at 14 days, 100 μl injections of either 20 mg CPA (Sigma) per mL saline or 100 μl saline were performed directly into the tumor mass. Animals were sacrificed at 17 days by euthanasia.

C6 tumors = assay: as above; type: in vivo, nude mice; details: day 17
Description: as §1

C6 cells = assay: Trypsinization and replating assay; type: cell-based, rat; details: for Cell number: replated, counted nine days later
Description: (§2) Trypsinization and replating assay: To determine the temporal kinetics of CPA-mediated cytotoxicity, 2×10^6 cells were plated onto each 10 cm dish. Twenty-four hours later, 0.5 mM CPA was added and cells were incubated for the times indicated in each figure. Cells were then trypsinized and replated at a density of 2×10^5 cells/10 cm dish. Nine days later, cell numbers were evaluated by Coulter counting.

C6-P450 cells = assay: Trypsinization and replating assay; type: cell-based, rat; details: for Cell number: replated, counted nine days later
Description: as §2

9L tumors = assay: Tumor growth delay study; type: in vivo, Fischer 344 rats; details: 100 mg/kg single intraperitoneal injection 7 days after implantation; tumors inhibited/total, 7-8 weeks
Description: (§3) Tumor Growth Delay Studies: 9L cells were grown subcutaneously (s.c.) as solid tumors in female Fischer 344 rats. Adult female Fischer 344 rats (120-150g) were inoculated at 2×10^6 cells/s.c. site; cytochrome P450 2B1-negative cells (parental 9L or 9L-Z cells) were injected in one thigh and cytochrome P450 2B1-positive cells (9L-ZP or L450-2 cells) in the other thigh. This strategy was employed to control any potential effects that subcutaneous growth of the 9L tumor might have on liver cytochrome P450-dependent cyclophosphamide activation activity. Drug treatment was initiated seven days after tumor implantation. Rats were randomized and divided into two groups. One group was treated with cyclophosphamide at 100 mg/kg body weight given as a single intraperitoneal injection. Another group was injected with saline as control. Tumor size was monitored by caliper measurement at times ranging up to 7-8 weeks, at which point the animals were sacrificed.

9L-Z tumors = assay: Tumor growth delay study; type: in vivo, Fischer 344 rats; details: 100 mg/kg single intraperitoneal injection 7 days after implantation; tumors inhibited/total, 7-8 weeks
Description: as §3

9L-ZP tumors = assay: Tumor growth delay study; type: in vivo, Fischer 344 rats; details: 100 mg/kg single intraperitoneal injection 7 days after implantation; tumors inhibited/total, 7-8 weeks
Description: as §3

L450-2 tumors = assay: Tumor growth delay study; type: in vivo, Fischer 344 rats; details: 100 mg/kg single intraperitoneal injection 7 days after implantation; tumors inhibited/total, 7-8 weeks
Description: as §3

C6VIK cells = assay: GCV killing in culture; type: cell-based; details: Rattus norvegicus, read-out: GCV concentration at which 50% of cells were killed
Text: (§4) Retroviral vectors can be used to transfer genes into the genome of dividing cells. In order to increase the efficiency of gene delivery and killing effect of ganciclovir, a new packaging line (C6VIK-WT) was developed by infecting C6VIK cells with an ecotropic wild-type retrovirus (MoMLV). See Mann et al., Cell 33:153-159 (1983); Price et al., Proc. Natl. Acad. Sci. USA 84:156-160 (1987); and Cepko, C., in Neuromethods, vol. 16, Molecular Neurobiological Techniques, Boulton et al., eds., The Humana Press, Clifton, N.J. (1989), pp. 177-219. Because tumor cells can migrate deep into brain parenchyme, they should be able to deliver the vector to tumor cells away from the tumor mass. In culture, 50% of C6VIK-WT cells were killed at 0.024 μM GCV, while it took 7.3 μM GCV to kill 50% of C6VIK cells. […] When C6VIK and C6VIK-WT were cultured with C6BAG cells (labelled with the lacZ gene and thus detectable by beta-galactosidase histochemistry), following GCV treatment substantially more C6BAG cells were killed when co-cultured with C6VIK-WT than with C6VIK cells. Presumably C6VIK-WT cells produce both wild-type retrovirus and retrovirus vectors containing the HSV-TK gene (neither of which are produced by C6VIK cells) and death of C6BAG cells might be mediated by retrovirus infection and/or self-generated GCV toxic products.

C6VIK-WT cells = assay: GCV killing in culture; type: cell-based; details: Rattus norvegicus, read-out: GCV concentration at which 50% of cells were killed
Text: as §4

C6BAG cells alone = assay: GCV treatment of subcutaneous tumors; type: in vivo, nude mice; details: subcutaneous inoculation
[1] = system: C6 glioma cells and other cells infected with this retrovirus; details: cell culture; cited from earlier work
[2] = 2 mg CPA intratumorally day 3 and 14
[3] = Table V panel B, survivors of panel A replated, nine days

For `O=P1(N(CCCl)CCCl)NCCCO1` (stereo not shown) [cyclophosphamide], the IC50 (C450-8 cells) was 27 µM, the Tumor volume (C450-8 tumors; [2]) was 0.016±0.003 cm^3 and the “ratio of the mean volumes of CPA-treated to saline-treated tumors” value (C450-8 tumors) was 0.035. For the same compound, the Tumor volume (C6 tumors; [2]) was 0.093±0.035 cm^3, the “ratio of the mean volumes of CPA-treated to saline-treated tumors” value (C6 tumors) was 0.124 and the Cell number (C6 cells; 0.5 mM CPA for 0.5 h) was 11.6 ± 0.4 ×10^6. For the same compound, the Cell number (C6 cells; 0.5 mM CPA for 1.5 h) was 21.7 ± 0.6 ×10^6, the Cell number (C6 cells; 0.5 mM CPA for 3 h) was 13.1 ± 1.6 ×10^6 and the Cell number (C6 cells; 0.5 mM CPA for 6 h) was 12.9 ± 0.7 ×10^6. For the same compound, the Cell number (C6 cells; 0.5 mM CPA for 10 h) was 20.4 ± 0.6 ×10^6, the Cell number (C6 cells; 0.5 mM CPA for 24 h) was 17 ± 0.7 ×10^6 and the Cell number (C6 cells; 0.5 mM CPA for 32 h) was 15.4 ± 0.5 ×10^6. For the same compound, the Cell number (C6 cells; 0.5 mM CPA for 48 h) was 18.3 ± 1 ×10^6, the Cell number (C6 cells; 0.5 mM CPA for 72 h) was 20.2 ×10^6 and the Cell number (C6 cells; 0.5 mM CPA for 96 h) was 28.8 ± 0.8 ×10^6. For the same compound, the “Trypsinization and replating assay, cell count” value (C6 cells; [3]) was 21.48±0.38, the “pulse of CPA sufficient to completely inhibit the growth of replated cells” value (C6-P450 cells; 0.5 mM CPA) was 3 h and the Cell number (C6-P450 cells; 0.5 mM CPA for 0.5 h) was 12 ± 1 ×10^6. For the same compound, the Cell number (C6-P450 cells; 0.5 mM CPA for 1.5 h) was 24.1 ± 0.6 ×10^6, the Cell number (C6-P450 cells; 0.5 mM CPA for 3 h) was 0.2 ×10^6 and the Cell number (C6-P450 cells; 0.5 mM CPA for 6 h) was 0.1 ×10^6. The Cell number (C6-P450 cells; 0.5 mM CPA for 10 h) was 0.1 ×10^6, the Cell number (C6-P450 cells; 0.5 mM CPA for 24 h) was 0.1 ×10^6 and the Cell number (C6-P450 cells; 0.5 mM CPA for 32 h) was 0 ×10^6. For the same compound, the Cell number (C6-P450 cells; 0.5 mM CPA for 48 h) was 0.1 ×10^6, the Cell number (C6-P450 cells; 0.5 mM CPA for 72 h) was 0 ×10^6 and the Cell number (C6-P450 cells; 0.5 mM CPA for 96 h) was 0 ×10^6. For the same compound, the “Proliferation of treated cells after replating” value (C6-P450 cells; 0.5 mM, trypsinization and replating) was “completely inhibited”, the “Trypsinization and replating assay, cell count” value (C6-P450 cells; [3]) was 0.11±0.01 and the “Complete Tumor Growth Inhibition” value (9L tumors) was 0/11. For the same compound, the “Complete Tumor Growth Inhibition” value (9L-Z tumors) was 0/9, the “Complete Tumor Growth Inhibition” value (9L-ZP tumors) was 8/9 and the “Complete Tumor Growth Inhibition” value (L450-2 tumors) was 11/11.
In the case of `Nc1nc(O)c2ncn(COC(CO)CO)c2n1` [ganciclovir], the IC50 (C6VIK cells) is reported as 7.3 µM, the IC50 (C6VIK-WT cells) is reported as 0.024 µM and the Tumor regression (C6BAG cells alone) is reported as “not with C6BAG cells alone”. The “fold lower ganciclovir concentration killing infected vs uninfected cells” value [1] was 100 fold.

Reference: patent publication US5688773A, “Method of selectively destroying neoplastic cells” (priority 1994, dated 1997)
